In patent publication US20220202712A1, “SELF-EMULSIFYING DRUG DELIVERY SYSTEMS FOR DELIVERY OF LIPOPHILIC COMPOUNDS” (Yissum Research Development Company of the Hebrew …, priority 2019, published 2022) one finds Cmax, Tmax and C1/F_obs data, which are given here for 2 compounds.

For data set [1] the following is noted: sublingual drops, cited from earlier work.
Data set [2] can be described thus: Pharmacokinetic studies for CBD- and THC-loaded SEDDS based on tributyrin. The conditions noted are these: oral, 0.125 mg THC/2.5 mg CBD (CBD:THC 20:1). The method, then:
The PK studies were carried out on rats. Three animals were used in each time point. At each test point, animals were sacrificed and blood (5-6 ml) withdrawn from the heart and collected in heparinized tubes.
Each rat was orally administered with 1 mil of the test formulation. Blood samples were withdrawn at different time points: 0, 0.5, 1, 2, 4, 6, 10 and 24 hours. The blood samples were centrifuged at 4000 rpm and the plasma was separated and collected in clean polyethylene tubes and kept at −80° C. until analysis using LC-MS/MS.
TB1 liquid SEDDS formulations were tested: 200 parts tributyrin, 350 parts Cremophor RH40, 350 parts PEG400, 350 parts PG.
The HPLC system consisted of a Dionex/Thermo Scientific UltiMate 3000 UHPLC systems fitted with a 100 μL sample loop, Dionex™ UltiMate™ 3000 Rapid Separation Diode Array Detector, and integration software Chromeleon Chromatography Data System (CDS).
Chromatographic separation was performed with guard column Luna® 5 μm C18(2) 100 Å, LC Column 150×4.6 mm, using an isocratic mobile phase of water (0.1% formic acid): acetonitrile (0.1% formic acid) 10:90 at a flow rate of 1 mL/min for 10 in minisocratic condition. The column temperature was 40° C. and the injection volume was 100 μL.
Dual ion electrospray ionization (DUIS) in positive was used for ionization of the analytes on the ISQ™ EC. […]

Like-named read-outs stand apart in the source and are kept apart here.

In the case of `C=C(C)[C@@H]1CCC(C)=C[C@H]1c1c(O)cc(CCCCC)cc1O` [CBD, cannabidiol], the values for the Cmax in data set [1] (CBD dose 10 mg) and in data set [1] (CBD dose 20 mg) were 2.05 ng/mL and 2.58 ng/mL, respectively. The Tmax (as a rule, the time at which the peak concentration occurs) in data set [1] (CBD dose 10 mg) is recorded as 2.17 h; in data set [1] (CBD dose 20 mg), 1.67 h.
In the case of `CCCCCc1cc(O)c2c(c1)OC(C)(C)[C@@H]1CCC(C)=C[C@@H]21` [THC, tetrahydrocannabinol], the Tmax in data set [2] (Table 20, THC, semi-solid SEDDS) stood at 2.00 h. In data set [2] (Table 21-2, THC in tributyrin as a carrier (reference)), this compound returned a C1/F_obs of 66.835 mL/min/kg.
